Results from PubChem BioAssay (NCI).
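Dose response: 5 concentrations. Exposure: 48 h. Format: 96-well plates. Endpoint: linear interpolation; highest concentration if not reached. The concentration for full growth arrest is given as TGI.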

How the values were obtained:
Assay in all cases: NCI anticancer screen, dose series, 48 h
[1] = tested on: A549 NSCLC
[2] = tested on: COLO 205 colon
[3] = tested on: TK-10 renal
[4] = tested on: CAKI-1 renal
[5] = tested on: MCF7 breast
[6] = tested on: BT-549 breast
[7] = tested on: SNB-19 CNS
[8] = tested on: NCI-H23 lung
[9] = tested on: MALME-3M melanoma
[10] = tested on: K-562 leukemia
[11] = tested on: RPMI-8226 leukemia
[12] = tested on: A498 renal
[13] = tested on: UACC-62 melanoma
[14] = tested on: SW-620 colon
[15] = tested on: SNB-75 CNS
[16] = tested on: SK-OV-3 ovarian
[17] = tested on: MDA-MB-231 breast
[18] = tested on: HT29 colon
[19] = tested on: HCC-2998 colon

`CCCCCCCCCCCCCCC[C@@H](O)C[N+](C)(C)CCO` gave a TGI [1] of 29.1 µM, a TGI [2] of 14.6 µM and a TGI [3] of 2.86 µM. It also gave a TGI [4] of 4.1 µM, a TGI [5] of 33.6 µM and a TGI [6] of 3.63 µM. For the same compound, the TGI [7] was 3.81 µM, the TGI [8] was 10.7 µM and the TGI [9] was 15.4 µM. It also gave a TGI [10] greater than 100 µM, a TGI [11] greater than 100 µM and a TGI [12] greater than 100 µM. For the same compound, the TGI [13] was 36.4 µM, the TGI [14] was greater than 45.4 µM and the TGI [15] was 7.54 µM. It also gave a TGI [16] of 36 µM, a TGI [17] of 7.85 µM and a TGI [18] of 4.62 µM. For the same compound, the TGI [19] was 4.81 µM.
